Reference: ChEMBL document CHEMBL4699466, “Isolation, reactivity, pharmacological activities and total synthesis of hispanolone and structurally related diterpenes from Labiatae plants” (Bioorg Med Chem Lett, 2020)
pIC50: −log10 of the molar value. Each block holds one compound with its values, some of them ahead of it.

Experiments:
RAW264.7 = assay: Antiinflammatory activity against mouse RAW264.7 cells assessed as inhibition of LPS-induced nitrite accumulation at 10 uM preincubated for 30 mins followed by LPS-stimulation and measured after 24 hrs by Griess reagent based assay relative to control; type: functional; design: scale not given: the % may be the effect or the level left; conditions: time 24.5 hrs
[1] = Metal chelating activity of the compound assessed as Fe2+-compound complex formation at 1 mg/ml incubated for 10 mins in presence of ferrozine solution relative to control
[2] = Metal chelating activity of the compound assessed as Fe2+-compound complex formation at 0.500 mg/ml incubated for 10 mins in presence of ferrozine solution relative to control; conditions: dose 0.5 mg/ml
[3] = Metal chelating activity of the compound assessed as Fe2+-compound complex formation at 0.250 mg/ml incubated for 10 mins in presence of ferrozine solution relative to control; conditions: dose 0.25 mg/ml
Mus musculus = organism: Mus musculus; assay: cells; conditions: Swiss-Taconi
Description: Antiinflammatory activity in Swiss-Taconi mouse assessed as reduction in TPA-induced ear edema

[4] = target: 11-beta-hydroxysteroid dehydrogenase 1 (Homo sapiens) (UniProt P28845); assay: Inhibition of human 11beta-HSD1 expressed in HEK-293 cells assessed as residual activity at […] using radiolabeled cortisone as substrate by scintillation counting; type: cell-based; conditions: HEK293
11-beta-hydroxysteroid dehydrogenase 1 (Homo sapiens), sequence (P28845 whole entry, looked up): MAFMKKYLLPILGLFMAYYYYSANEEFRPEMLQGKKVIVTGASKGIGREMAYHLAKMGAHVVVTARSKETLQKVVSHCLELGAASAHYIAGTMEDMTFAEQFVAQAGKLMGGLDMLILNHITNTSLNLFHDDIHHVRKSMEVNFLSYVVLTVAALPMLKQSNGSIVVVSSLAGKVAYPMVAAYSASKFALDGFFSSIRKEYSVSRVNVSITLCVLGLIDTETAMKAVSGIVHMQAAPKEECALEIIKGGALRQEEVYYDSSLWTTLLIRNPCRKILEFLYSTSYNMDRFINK

Neutrophil [5] = assay: Antiinflammatory activity in human neutrophils assessed as inhibition of elastase release at 10 uM relative to control; type: functional; design: scale not given: the % may be the effect or the level left
Sulfotransferase 1E1 = target: T1, Sulfotransferase 1E1 (Homo sapiens, UniProt P49888); assay: Inhibition of estrogen sulfotransferase in human liver cytosol incubated for 30 mins in presence of [3H]-estradiol and adenosine -3'-phosphate 5'-phosphosulfate by liquid scintillation counting method; type: subcellular
T1 sequence (P49888 whole entry): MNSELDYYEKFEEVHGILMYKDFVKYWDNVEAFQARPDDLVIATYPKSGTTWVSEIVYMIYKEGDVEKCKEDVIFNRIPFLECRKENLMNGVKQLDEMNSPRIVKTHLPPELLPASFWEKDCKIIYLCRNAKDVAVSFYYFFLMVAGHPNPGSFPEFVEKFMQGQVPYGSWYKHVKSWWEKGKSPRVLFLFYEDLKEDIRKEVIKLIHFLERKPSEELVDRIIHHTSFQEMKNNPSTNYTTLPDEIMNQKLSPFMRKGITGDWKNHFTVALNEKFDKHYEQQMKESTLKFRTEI

Acetylcholinesterase = target: T2, Acetylcholinesterase (Rattus norvegicus, UniProt P37136); assay: Inhibition of Sprague-Dawley rat acetylcholinesterase using acetylthiocholine iodide as substrate measured at 30 secs for 5 mins by Ellman's method
T2 sequence (P37136 whole entry): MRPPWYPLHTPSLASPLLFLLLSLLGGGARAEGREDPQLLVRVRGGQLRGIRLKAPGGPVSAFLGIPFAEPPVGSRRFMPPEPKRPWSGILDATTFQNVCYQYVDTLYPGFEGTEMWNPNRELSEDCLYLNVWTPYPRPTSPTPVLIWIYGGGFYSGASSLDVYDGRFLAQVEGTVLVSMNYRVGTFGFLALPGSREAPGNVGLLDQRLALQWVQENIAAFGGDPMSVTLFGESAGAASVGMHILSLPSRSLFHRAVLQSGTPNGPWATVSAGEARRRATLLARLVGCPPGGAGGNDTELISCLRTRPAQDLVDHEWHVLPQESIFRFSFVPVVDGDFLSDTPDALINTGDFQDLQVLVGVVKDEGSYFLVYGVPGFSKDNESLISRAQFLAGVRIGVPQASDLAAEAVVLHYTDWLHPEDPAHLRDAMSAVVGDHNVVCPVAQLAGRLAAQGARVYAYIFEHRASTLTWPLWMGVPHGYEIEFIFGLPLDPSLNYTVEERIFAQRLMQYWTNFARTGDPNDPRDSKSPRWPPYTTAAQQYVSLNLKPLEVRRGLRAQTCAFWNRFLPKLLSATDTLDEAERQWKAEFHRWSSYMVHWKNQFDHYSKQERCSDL

Neutrophil [6] = assay: Antiinflammatory activity in human neutrophils assessed as inhibition of elastase release; type: functional, cell-based
Neutrophil [7] = assay: Antiinflammatory activity in human neutrophils assessed as inhibition of fMLF/cytochalasin B-induced superoxide anion generation; type: functional, cell-based
Neutrophil [8] = assay: Antiinflammatory activity in human neutrophils assessed as inhibition of fMLF/cytochalasin B-induced superoxide anion generation at 10 uM relative to control; type: functional; design: scale not given: the % may be the effect or the level left
[9] = Antagonist activity at PAF receptor in rabbit platelet membrane assessed as inhibition of [3H]-PAF binding to PAF receptor; type: cell membranes, Oryctolagus cuniculus, Cell membrane

Compound: CC1=C(CCC2=CC(=O)OC2O)[C@@]2(C)CCCC(C)(C)[C@@H]2CC1=O (some centres undefined)
Activity (RAW264.7): 84.1%

Activity [1]: 97.3% | Activity [2]: 97% | Activity [3]: 96% | pIC50 (Mus musculus): 5.98 | Activity [4]: 20%
Compound: C[C@@H]1C(=O)C[C@H]2C(C)(C)CCC[C@]2(C)[C@@]1(O)CCc1ccoc1

Compound: CC1=C(CCc2ccoc2)[C@@]2(C)CCCC(C)(C)[C@@H]2CC1=O
Activity (Neutrophil [5]): 70.06% | pIC50 (Sulfotransferase 1E1): 4.70 | pIC50 (Acetylcholinesterase): 4.41 | pIC50 (Neutrophil [6]): 5.27 | pIC50 (Neutrophil [7]): 5.07 | Activity (Neutrophil [8]): 58.43%

Compound: CCC1=C(Cc2ccoc2)C(=O)[C@@]2(C)CCCC(C)(C)[C@@H]2C1
Activity (RAW264.7): 35.53%

pIC50 [9]: 5.40
Compound: C[C@@H]1C(=O)C[C@H]2C(C)(C)CCC[C@]2(C)[C@@]12CC[C@]1(C=COC1)O2
